Measurements as given in PMC3723632, “A Multi-targeted Drug Candidate with Dual Anti-HIV and Anti-HSV Activity” (PLoS Pathogens, 2013).
In brackets after ≈: the same amount, converted by molar mass.

Key:
Assay type in all cases: biochemical
[1] = biological target: T1, HIV-1 RT (Human immunodeficiency virus type 1 group M subtype B, UniProt P03366); test: HIV-1 reverse transcriptase assay; settings: dATP (3.2 µM) as competing substrate, poly rU.dA primer/template
T1 construct: 4 µl of recombinant HIV-1 RT
Protocol: […] In the HSV DNA polymerase assays, the inhibitory effect of adefovir-pp or PMEA-DAPym-pp on herpesvirus DNA polymerase-catalyzed polymerization was also determined in the presence of radiolabeled [^3H]dGTP (1 mCi/ml; 2.8 µM), [^3H]dTTP (1 mCi/ml; 1 µM), or [^3H]dCTP (1 mCi/ml; 2.5 µM) as competing dNTP in the presence of 0.8 µl (5 mM) of the other dNTPs in the reaction mixture as described above. The reaction was started by the addition of 4 µl of recombinant HSV-1 DNA polymerase (kindly provided by M.W. Wathen, at that time at Pfizer, Kalamazoo, MI) or 4 µl of recombinant HIV-1 RT (in 20 mM Tris.HCl, pH 8.0; 1 mM DTT; 0.1 mM EDTA; 0.2 M NaCl; 40% glycerol), and the reaction mixture was incubated for 60 min (HSV-1 DNA polymerase) or 30 min (HIV-1 RT) at 37°C. Then, 1 ml of ice-cold 5% TCA in 0.02 M Na4P2O7.10 H2O was added to terminate the polymerisation reaction, after which the acid-insoluble precipitate (radiolabeled DNA) was captured onto Whatman glass fiber filters (type GF/C; GE Healthcare UK Limited, Buckinghamshire, UK) and further washed with 5% TCA and ethanol to remove free radiolabeled dNTP. Radioactivity was determined in a Perkin Elmer Tri-Carb 2810 TR liquid scintillation counter.

[2] = biological target: T2, HSV DNA polymerase (Human herpesvirus 1, UniProt P04293); test: HSV DNA polymerase assay; settings: for IC50: gapped calf thymus DNA
T2 construct: gift of M.W. Wathen (Pfizer, Kalamazoo, MI)
Protocol: The reaction mixture (40 µl) for the HSV-1 DNA polymerase and HIV-1 RT assays contained 4 µl of Premix (200 mM Tris.HCl, pH 7.5; 2 mM DTT; 30 mM MgCl2), 4 µl of BSA (5 mg/ml), 1.6 µl of activated calf thymus DNA (1.25 mg/ml), 0.8 µl of dCTP (5 mM), 0.8 µl of dTTP (5 mM), 0.8 µl of dGTP (5 mM), 2 µl of radiolabeled [^3H]dATP (1 mCi/ml) (3.2 µM), 18 µl of H2O, and 4 µl of adefovir-pp or PMEO-DAPym-pp at different concentrations (i.e., 200, 20, 2, and 0.2 µM). In the HSV DNA polymerase assays, the inhibitory effect of adefovir-pp or PMEA-DAPym-pp on herpesvirus DNA polymerase-catalyzed polymerization was also determined in the presence of radiolabeled [^3H]dGTP (1 mCi/ml; 2.8 µM), [^3H]dTTP (1 mCi/ml; 1 µM), or [^3H]dCTP (1 mCi/ml; 2.5 µM) as competing dNTP in the presence of 0.8 µl (5 mM) of the other dNTPs in the reaction mixture as described above. The reaction was started by the addition of 4 µl of recombinant HSV-1 DNA polymerase (kindly provided by M.W. Wathen, at that time at Pfizer, Kalamazoo, MI) or 4 µl of recombinant HIV-1 RT (in 20 mM Tris.HCl, pH 8.0; 1 mM DTT; 0.1 mM EDTA; 0.2 M NaCl; 40% glycerol), and the reaction mixture was incubated for 60 min (HSV-1 DNA polymerase) or 30 min (HIV-1 RT) at 37°C. Then, 1 ml of ice-cold 5% TCA in 0.02 M Na4P2O7.10 H2O was added to terminate the polymerisation reaction, after which the acid-insoluble precipitate (radiolabeled DNA) was captured onto Whatman glass fiber filters (type GF/C; GE Healthcare UK Limited, Buckinghamshire, UK) and further washed with 5% TCA and ethanol to remove free radiolabeled dNTP. Radioactivity was determined in a Perkin Elmer Tri-Carb 2810 TR liquid scintillation counter.

[3] = biological target: mutant HIV-1 RT enzymes (K65R and K70R); test: Mutant HIV-1 RT enzyme inhibition; settings: K65R and K70R mutant HIV-1 RT, data not shown
Protocol: In all assay systems the drugs were administered prior to, or at the time of, virus infection which is relevant from a microbicidal application viewpoint, for which the drugs are preferentially already present at the time of infection. However, it might well be possible that these drugs are also effective when exposed shortly after virus infection given the DNA polymerase/HIV reverse transcriptase as being one of the intracellular targets of PMEO-DAPym. […] Thus, PMEO-DAPym may have a rather high genetic barrier suppressing a wide variety of clinical HSV and HIV-1 clade isolates, including clinically relevant mutant viruses.

T2 sequence (P04293 whole entry): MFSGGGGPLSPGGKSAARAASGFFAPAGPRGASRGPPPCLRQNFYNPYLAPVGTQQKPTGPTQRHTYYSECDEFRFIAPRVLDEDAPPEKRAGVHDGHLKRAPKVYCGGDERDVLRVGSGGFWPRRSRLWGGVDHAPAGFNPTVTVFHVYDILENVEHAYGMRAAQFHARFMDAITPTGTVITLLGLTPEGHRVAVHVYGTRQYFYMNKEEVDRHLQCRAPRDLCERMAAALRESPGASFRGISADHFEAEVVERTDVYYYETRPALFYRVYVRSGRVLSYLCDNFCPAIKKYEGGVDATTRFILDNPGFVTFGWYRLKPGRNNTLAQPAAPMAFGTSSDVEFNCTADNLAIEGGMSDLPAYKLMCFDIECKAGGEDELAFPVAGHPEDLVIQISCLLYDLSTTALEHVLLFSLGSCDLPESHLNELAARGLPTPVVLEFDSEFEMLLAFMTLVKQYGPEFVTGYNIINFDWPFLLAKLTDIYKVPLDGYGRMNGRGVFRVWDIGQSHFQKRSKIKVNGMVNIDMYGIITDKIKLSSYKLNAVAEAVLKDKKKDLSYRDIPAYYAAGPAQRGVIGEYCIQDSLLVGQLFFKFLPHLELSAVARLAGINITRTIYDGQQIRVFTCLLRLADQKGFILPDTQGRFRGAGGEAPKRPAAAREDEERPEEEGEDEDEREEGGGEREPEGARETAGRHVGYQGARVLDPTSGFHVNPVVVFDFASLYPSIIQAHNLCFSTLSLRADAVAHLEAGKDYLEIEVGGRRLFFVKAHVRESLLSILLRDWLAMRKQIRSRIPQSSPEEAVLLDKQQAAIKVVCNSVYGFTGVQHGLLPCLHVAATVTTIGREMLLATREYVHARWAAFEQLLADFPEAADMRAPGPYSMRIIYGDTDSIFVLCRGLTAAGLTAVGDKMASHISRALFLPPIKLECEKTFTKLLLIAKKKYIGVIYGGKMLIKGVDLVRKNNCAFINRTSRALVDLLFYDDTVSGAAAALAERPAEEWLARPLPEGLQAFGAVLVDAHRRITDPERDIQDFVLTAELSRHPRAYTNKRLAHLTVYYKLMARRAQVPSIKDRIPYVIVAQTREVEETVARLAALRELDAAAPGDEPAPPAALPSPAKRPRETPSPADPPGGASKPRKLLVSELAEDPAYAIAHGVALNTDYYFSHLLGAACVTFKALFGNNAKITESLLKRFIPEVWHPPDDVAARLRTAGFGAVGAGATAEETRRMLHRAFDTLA

For `Nc1cc(OCCOCP(=O)(O)OP(=O)(O)OP(=O)(O)O)nc(N)n1` [PMEO-DAPym-pp], the IC50 [1] was 0.19 ± 0.21 µg/mL (≈ 0.448 µM), the IC50 ([1]; listed as PMEO-DAPym-diphosphate) was 0.43 µg/mL (≈ 1.01 µM) and the IC50 ([2]; [3H]dATP as competing substrate) was 0.52 ± 0.03 µg/mL (≈ 1.23 µM). It also gave an IC50 ([2]; [3H]dCTP as competing substrate) of 5.2 ± 4.8 µg/mL (≈ 12.3 µM), an IC50 ([2]; [3H]dGTP as competing substrate) of 3.1 ± 1.0 µg/mL (≈ 7.31 µM) and an IC50 ([2]; [3H]dTTP as competing substrate) of 5.2 ± 0.3 µg/mL (≈ 12.3 µM). For the same compound, the “IC50, incorporation of other [3H]dNTPs” value ([2]; dCTP, dGTP, dTTP, range) was 3.1 to 5.2 µg/mL and the IC50 [3] was “submicromolar range”.
